Results reported in patent US9932314B2, “Pyrazole compounds and their use as T-type calcium channel blockers” (IDORSIA PHARMACEUTICALS LTD, priority 2015, dated 2018).

Molecular target: T1, voltage-dependent T-type calcium channel subunit alpha-1G (Cav3.2) (Homo sapiens, UniProt O95180)
T1 construct: expressed in transfected cells; host or cells: HEK293
Assay: FLIPR calcium flux assay, HEK293 cells recombinantly expressing Cav3.2
Format: cell-based
Conditions: Cav3.2-channel, Fluo-4-AM, 3 min incubation, stimulation with 10 mM CaCl2
In short: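 HEK293 cells stably expressing human Cav3.2 were loaded with Fluo-4-AM. Compounds diluted in TEAC buffer (pH 7.2) were preincubated for 3 min, then Ca2+ entry was triggered by 10 mM final CaCl2. Inhibition curves were fitted sigmoidally to the area under the fluorescence trace.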

T1 sequence (O95180 whole entry): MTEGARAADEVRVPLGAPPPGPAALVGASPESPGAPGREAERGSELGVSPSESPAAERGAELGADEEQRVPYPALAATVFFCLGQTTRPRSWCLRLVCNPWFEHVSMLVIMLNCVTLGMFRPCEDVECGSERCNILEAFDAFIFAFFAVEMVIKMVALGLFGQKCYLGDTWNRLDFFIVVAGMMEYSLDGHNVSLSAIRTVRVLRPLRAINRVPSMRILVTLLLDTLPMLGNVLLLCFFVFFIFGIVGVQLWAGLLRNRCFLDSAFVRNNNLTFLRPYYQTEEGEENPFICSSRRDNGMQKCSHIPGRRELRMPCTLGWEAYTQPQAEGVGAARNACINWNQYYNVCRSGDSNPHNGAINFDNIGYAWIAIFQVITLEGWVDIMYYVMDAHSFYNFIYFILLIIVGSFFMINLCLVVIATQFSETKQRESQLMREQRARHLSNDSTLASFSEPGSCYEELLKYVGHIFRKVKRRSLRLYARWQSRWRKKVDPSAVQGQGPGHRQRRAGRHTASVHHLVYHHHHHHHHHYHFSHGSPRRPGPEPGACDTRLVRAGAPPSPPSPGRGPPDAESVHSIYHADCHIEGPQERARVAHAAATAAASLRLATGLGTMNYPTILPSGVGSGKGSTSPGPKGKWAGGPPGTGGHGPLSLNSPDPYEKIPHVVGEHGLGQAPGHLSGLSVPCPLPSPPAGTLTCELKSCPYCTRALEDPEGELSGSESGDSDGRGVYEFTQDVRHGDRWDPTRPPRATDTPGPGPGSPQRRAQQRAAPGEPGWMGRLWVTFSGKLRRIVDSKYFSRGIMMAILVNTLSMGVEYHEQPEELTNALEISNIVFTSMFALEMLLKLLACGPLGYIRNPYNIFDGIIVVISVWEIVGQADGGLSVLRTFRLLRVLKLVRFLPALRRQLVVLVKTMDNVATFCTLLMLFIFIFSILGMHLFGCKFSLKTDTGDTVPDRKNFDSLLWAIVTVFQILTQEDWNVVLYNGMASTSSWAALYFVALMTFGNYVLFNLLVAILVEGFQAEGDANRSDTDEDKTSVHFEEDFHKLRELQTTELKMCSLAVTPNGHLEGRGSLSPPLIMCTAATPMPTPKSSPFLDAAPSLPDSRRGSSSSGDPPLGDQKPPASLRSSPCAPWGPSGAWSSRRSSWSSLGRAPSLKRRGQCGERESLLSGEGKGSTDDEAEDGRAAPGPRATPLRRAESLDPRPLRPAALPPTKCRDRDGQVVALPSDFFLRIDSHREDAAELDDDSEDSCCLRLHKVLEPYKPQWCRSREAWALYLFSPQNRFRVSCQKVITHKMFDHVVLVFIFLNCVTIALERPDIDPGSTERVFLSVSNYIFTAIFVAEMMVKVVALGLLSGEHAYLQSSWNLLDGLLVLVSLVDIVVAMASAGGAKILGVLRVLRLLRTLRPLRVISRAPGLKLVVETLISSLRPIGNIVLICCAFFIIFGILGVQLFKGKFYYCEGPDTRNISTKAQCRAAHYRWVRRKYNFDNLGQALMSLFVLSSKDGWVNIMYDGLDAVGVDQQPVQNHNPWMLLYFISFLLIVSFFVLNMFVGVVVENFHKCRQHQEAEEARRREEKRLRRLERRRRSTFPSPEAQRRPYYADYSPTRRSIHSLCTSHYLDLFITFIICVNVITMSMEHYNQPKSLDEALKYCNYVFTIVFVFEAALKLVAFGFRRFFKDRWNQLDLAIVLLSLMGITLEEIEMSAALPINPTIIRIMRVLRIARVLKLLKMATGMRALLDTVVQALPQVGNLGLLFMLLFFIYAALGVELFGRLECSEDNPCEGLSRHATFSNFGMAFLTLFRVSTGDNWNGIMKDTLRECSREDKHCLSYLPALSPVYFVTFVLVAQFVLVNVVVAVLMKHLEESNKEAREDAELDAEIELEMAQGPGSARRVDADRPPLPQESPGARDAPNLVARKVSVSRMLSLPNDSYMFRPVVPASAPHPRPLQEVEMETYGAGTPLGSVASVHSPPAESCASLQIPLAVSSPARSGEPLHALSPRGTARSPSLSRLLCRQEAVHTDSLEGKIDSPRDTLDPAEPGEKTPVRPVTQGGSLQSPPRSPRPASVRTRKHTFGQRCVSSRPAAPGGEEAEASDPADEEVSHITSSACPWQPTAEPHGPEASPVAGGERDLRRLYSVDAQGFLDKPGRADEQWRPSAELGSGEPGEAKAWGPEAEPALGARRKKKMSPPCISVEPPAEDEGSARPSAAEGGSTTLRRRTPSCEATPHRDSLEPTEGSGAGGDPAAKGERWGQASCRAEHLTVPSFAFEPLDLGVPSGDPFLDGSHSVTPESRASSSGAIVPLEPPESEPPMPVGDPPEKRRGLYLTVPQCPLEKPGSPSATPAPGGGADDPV

**Q.** With `COC(C)c1ccc(CC(=O)Nc2ccn(Cc3ccc(C#N)cn3)n2)cc1` (racemic) [Example 203, rac-N-[1-(5-Cyano-pyridin-2-ylmethyl)-1H-pyrazol-3-yl]-2-[4-(1-methoxy-ethyl)-phenyl]acetamide] as the compound, how does the IC50 read?
**A.** 1260 nM

**Q.** How did the IC50 turn out when `CC1(C)COc2ccc(CC(=O)Nc3ccn(Cc4ccc(C#N)cn4)n3)cc21` [Example 379, N-[1-(5-Cyano-pyridin-2-ylmethyl)-1H-pyrazol-3-yl]-2-(3,3-dimethyl-2,3-dihydro-benzofuran-5-yl)-acetamide] was run?
**A.** 658 nM

**Q.** How did the IC50 turn out when `Cn1ccc2cc(CC(=O)Nc3ccn(Cc4ccc(F)cc4)n3)cnc21` [Example 213, N-[1-(4-Fluoro-benzyl)-1H-pyrazol-3-yl]-2-(1-methyl-1H-pyrrolo[2,3-b]pyridin-5-yl)-acetamide] was run?
**A.** 31 nM

**Q.** How did the IC50 turn out when `N#Cc1ccc(Cn2ccc(NC(=O)Cc3ccc(N4CCC(F)(F)C4)nc3)n2)nc1` [Example 119, N-[1-(5-Cyano-pyridin-2-ylmethyl)-1H-pyrazol-3-yl]-2-[6-(3,3-difluoro-pyrrolidin-1-yl)-pyridin-3-yl]-acetamide] was run?
**A.** 137 nM

**Q.** Which IC50 does the source give for `COC(C)c1ccc(CC(=O)Nc2ccn(Cc3ccc(F)c(C#N)c3)n2)cc1` (racemic) [Example 319, rac-N-[1-(3-Cyano-4-fluoro-benzyl)-1H-pyrazol-3-yl]-2-[4-(1-methoxy-ethyl)-phenyl]-acetamide] here?
**A.** 66 nM

**Q.** How did the IC50 turn out when `N#Cc1ccc(Cn2ccc(NC(=O)Cc3ccc(N4CC[C@H](F)C4)cc3)n2)cc1` [Example 74, N-[1-(4-Cyano-benzyl)-1H-pyrazol-3-yl]-2-[4-((S)-3-fluoro-pyrrolidin-1-yl)-phenyl]-acetamide] was run?
**A.** 14 nM

**Q.** With `N#Cc1cc(Cn2ccc(NC(=O)Cc3ccc(C4(C(F)(F)F)CC4)cc3)n2)ccc1F` [Example 314, N-[1-(3-Cyano-4-fluoro-benzyl)-1H-pyrazol-3-yl]-2-[4-(1-trifluoromethyl-cyclopropyl)-phenyl]-acetamide] as the compound, how does the IC50 read?
**A.** 32 nM

**Q.** How did the IC50 turn out when `Cc1nc2ccc(CC(=O)Nc3ccn(Cc4ccc(F)cc4)n3)cc2[nH]1` [Example 137, N-[1-(4-Fluoro-benzyl)-1H-pyrazol-3-yl]-2-(2-methyl-3H-benzoimidazol-5-yl)-acetamide] was run?
**A.** 313 nM

**Q.** For `O=C(Cc1ccc(-c2cnccn2)cc1)Nc1ccn(Cc2ccc(F)cc2)n1` [Example 81, N-[1-(4-Fluoro-benzyl)-1H-pyrazol-3-yl]-2-(4-pyrazin-2-yl-phenyl)-acetamide], which IC50 is on record?
**A.** 131 nM

**Q.** With `N#Cc1cc(Cn2ccc(NC(=O)Cc3ccc(OC4COC4)cc3)n2)ccc1F` [Example 269, N-[1-(3-Cyano-4-fluoro-benzyl)-1H-pyrazol-3-yl]-2-[4-(oxetan-3-yloxy)-phenyl]-acetamide] as the compound, how does the IC50 read?
**A.** 162 nM

**Q.** For `CC(C)(C)c1ccc(CC(=O)Nc2ccn(Cc3ccc(C#N)cc3)n2)cc1` [Example 271, 2-(4-tert-Butyl-phenyl)-N-[1-(4-cyano-benzyl)-1H-pyrazol-3-yl]-acetamide], which IC50 is on record?
**A.** 3.4 nM

**Q.** How did the IC50 turn out when `O=C(Cc1ccc(-c2ncccn2)cc1)Nc1ccn(Cc2ccc(F)cc2)n1` [Example 85, N-[1-(4-Fluoro-benzyl)-1H-pyrazol-3-yl]-2-(4-pyrimidin-2-yl-phenyl)-acetamide] was run?
**A.** 301 nM

**Q.** `COCCN(C)c1ccc(CC(=O)Nc2ccn(Cc3ccc(C#N)cc3)n2)cn1` [Example 181, N-[1-(4-Cyano-benzyl)-1H-pyrazol-3-yl]-2-{6-[(2-methoxy-ethyl)-methyl-amino]-pyridin-3-yl}-acetamide] was tested. Which IC50 did it give?
**A.** 272 nM

**Q.** Which IC50 does the source give for `CC1(COc2ccc(CC(=O)Nc3ccn(Cc4ccc(C#N)cn4)n3)cc2)CC(F)(F)C1` [Example 303, N-[1-(5-Cyano-pyridin-2-ylmethyl)-1H-pyrazol-3-yl]-2-[4-(3,3-difluoro-1-methyl-cyclobutylmethoxy)-phenyl]-acetamide] here?
**A.** 51 nM

**Q.** `Cc1ccc(Cn2ccc(NC(=O)Cc3ccc(N(C)C)cc3)n2)cc1F` [Example 32, 2-(4-Dimethylamino-phenyl)-N-[1-(3-fluoro-4-methyl-benzyl)-1H-pyrazol-3-yl]-acetamide] was tested. Which IC50 did it give?
**A.** 7.6 nM

**Q.** `Cc1cn(C)c2cc(CC(=O)Nc3ccn(Cc4ccc(F)c(C#N)c4)n3)ccc12` [Example 330, N-[1-(3-Cyano-4-fluoro-benzyl)-1H-pyrazol-3-yl]-2-(1,3-dimethyl-1H-indol-6-yl)-acetamide] was tested. Which IC50 did it give?
**A.** 4.8 nM

**Q.** With `CCN(C)c1ccc(CC(=O)Nc2ccn(Cc3ccc(OC)cc3)n2)cc1` [Example 129, 2-[4-(Ethyl-methyl-amino)-phenyl]-N-[1-(4-methoxy-benzyl)-1H-pyrazol-3-yl]-acetamide] as the compound, how does the IC50 read?
**A.** 128 nM

**Q.** For `Cc1cc(Cn2ccc(NC(=O)Cc3ccc(N(C)C)nc3)n2)ccc1F` [Example 39, 2-(6-Dimethylamino-pyridin-3-yl)-N-[1-(4-fluoro-3-methyl-benzyl)-1H-pyrazol-3-yl]-acetamide], which IC50 is on record?
**A.** 49 nM

**Q.** How did the IC50 turn out when `CCN(C)c1ccc(CC(=O)Nc2ccn(Cc3ccc(F)c(F)c3)n2)cn1` [Example 172, N-[1-(3,4-Difluoro-benzyl)-1H-pyrazol-3-yl]-2-[6-(ethyl-methyl-amino)-pyridin-3-yl]-acetamide] was run?
**A.** 15 nM

**Q.** With `CN(CC1CC1)c1ccc(CC(=O)Nc2ccn(Cc3ccc(C#N)cc3)n2)cn1` [Example 186, N-[1-(4-Cyano-benzyl)-1H-pyrazol-3-yl]-2-[6-(cyclopropylmethyl-methyl-amino)-pyridin-3-yl]-acetamide] as the compound, how does the IC50 read?
**A.** 41 nM

**Q.** With `CC(C)Cc1ccc(Cn2ccc(NC(=O)Cc3ccc(C(C)C)cc3)n2)nc1` [Example 98, N-[1-(5-Isobutyl-pyridin-2-ylmethyl)-1H-pyrazol-3-yl]-2-(4-isopropyl-phenyl)-acetamide] as the compound, how does the IC50 read?
**A.** 38 nM

**Q.** Which IC50 does the source give for `Cc1ccc(Cn2ccc(NC(=O)Cc3ccc(N(C)C)nc3)n2)cc1F` [Example 38, 2-(6-Dimethylamino-pyridin-3-yl)-N-[1-(3-fluoro-4-methyl-benzyl)-1H-pyrazol-3-yl]-acetamide] here?
**A.** 39 nM

**Q.** Which IC50 does the source give for `COCCN(C)c1ccc(CC(=O)Nc2ccn(Cc3ccc(F)c(F)c3)n2)cn1` [Example 180, N-[1-(3,4-Difluoro-benzyl)-1H-pyrazol-3-yl]-2-{6-[(2-methoxy-ethyl)-methyl-amino]-pyridin-3-yl}-acetamide] here?
**A.** 33 nM

**Q.** `COC(C)c1ccc(CC(=O)Nc2ccn(Cc3ccc(C#N)cc3)n2)cc1` (racemic) [Example 320, rac-N-[1-(4-Cyano-benzyl)-1H-pyrazol-3-yl]-2-[4-(1-methoxy-ethyl)-phenyl]-acetamide] was tested. Which IC50 did it give?
**A.** 99 nM

**Q.** Which IC50 does the source give for `N#Cc1cc(Cn2ccc(NC(=O)Cc3ccc(S(F)(F)(F)(F)F)cc3)n2)ccc1F` [Example 334, N-(1-(3-cyano-4-fluorobenzyl)-1H-pyrazol-3-yl)-2-(4-(pentafluoro-λ^6-sulfanyl)phenyl)acetamide] here?
**A.** 21 nM

**Q.** With `N#Cc1ccc(Cn2ccc(NC(=O)Cc3ccc(OCC4CC4)c(OC(F)(F)F)c3)n2)nc1` [Example 397, N-[1-(5-Cyano-pyridin-2-ylmethyl)-1H-pyrazol-3-yl]-2-(4-cyclopropylmethoxy-3-trifluoromethoxy-phenyl)-acetamide] as the compound, how does the IC50 read?
**A.** 44 nM

**Q.** How did the IC50 turn out when `COC(C)c1ccc(CC(=O)Nc2ccn(Cc3ccc(F)cc3)n2)cc1` (racemic) [Example 201, rac-N-[1-(4-Fluoro-benzyl)-1H-pyrazol-3-yl]-2-[4-(1-methoxy-ethyl)-phenyl]-acetamide] was run?
**A.** 30 nM

**Q.** For `N#Cc1ccc(Cn2ccc(NC(=O)Cc3ccc(N4CC(F)C4)cc3)n2)cc1` [Example 72, N-[1-(4-Cyano-benzyl)-1H-pyrazol-3-yl]-2-[4-(3-fluoro-azetidin-l-yl)-phenyl]-acetamide], which IC50 is on record?
**A.** 46 nM

**Q.** With `N#Cc1ccc(Cn2ccc(NC(=O)Cc3ccc(OC4CC(F)(F)C4)cc3)n2)cc1` [Example 273, N-[1-(4-Cyano-benzyl)-1H-pyrazol-3-yl]-2-[4-(3,3-difluoro-cyclobutoxy)-phenyl]-acetamide] as the compound, how does the IC50 read?
**A.** 35 nM

**Q.** `N#Cc1c(F)cc(Cn2ccc(NC(=O)Cc3ccc(OCC4CC(F)(F)C4)cc3)n2)cc1F` [Example 363, N-[1-(4-Cyano-3,5-difluoro-benzyl)-1H-pyrazol-3-yl]-2-[4-(3,3-difluoro-cyclobutylmethoxy)-phenyl]-acetamide] was tested. Which IC50 did it give?
**A.** 51 nM

**Q.** How did the IC50 turn out when `CCN(CC)c1ccc(CC(=O)Nc2ccn(Cc3ccc(OC)cc3)n2)cc1` [Example 112, 2-(4-Diethylamino-phenyl)-N-[1-(4-methoxy-benzyl)-1H-pyrazol-3-yl]-acetamide] was run?
**A.** 21 nM

**Q.** Which IC50 does the source give for `CC(C)c1ccc(CC(=O)Nc2ccn(Cc3ccc(F)cc3)n2)cc1` [Example 6, N-[1-(4-Fluoro-benzyl)-1H-pyrazol-3-yl]-2-(4-isopropyl-phenyl)-acetamide] here?
**A.** 6.6 nM

**Q.** For `O=C(Cc1ccc(N2CCC2)cc1)Nc1ccn(Cc2ccc(F)c(F)c2)n1` [Example 60, 2-(4-Azetidin-1-yl-phenyl)-N-[1-(3,4-difluoro-benzyl)-1H-pyrazol-3-yl]-acetamide], which IC50 is on record?
**A.** 4.7 nM

**Q.** With `N#Cc1ccc(Cn2ccc(NC(=O)Cc3ccc(C(F)(F)F)cc3)n2)nc1` [Example 338, N-[1-(5-Cyano-pyridin-2-ylmethyl)-1H-pyrazol-3-yl]-2-(4-trifluoromethyl-phenyl)-acetamide] as the compound, how does the IC50 read?
**A.** 61 nM

**Q.** With `O=C(Cc1ccc(N2CCC2)nc1)Nc1ccn(Cc2ccc(F)c(F)c2)n1` [Example 99, 2-(6-Azetidin-1-yl-pyridin-3-yl)-N-[1-(3,4-difluoro-benzyl)-1H-pyrazol-3-yl]-acetamide] as the compound, how does the IC50 read?
**A.** 48 nM

**Q.** Which IC50 does the source give for `CC(C)c1ccc(CC(=O)Nc2ccn(Cc3ccc(N4CCC4)cn3)n2)cc1` [Example 394, N-[1-(5-Azetidin-1-yl-pyridin-2-ylmethyl)-1H-pyrazol-3-yl]-2-(4-isopropyl-phenyl)-acetamide] here?
**A.** 126 nM

**Q.** Which IC50 does the source give for `COC1(c2ccc(CC(=O)Nc3ccn(Cc4ccc(C#N)cn4)n3)cc2)CC1` [Example 384, N-[1-(5-Cyano-pyridin-2-ylmethyl)-1H-pyrazol-3-yl]-2-[4-(1-methoxy-cyclopropyl)-phenyl]-acetamide] here?
**A.** 128 nM

**Q.** `CC(C)c1ccc(CC(=O)Nc2ccn(Cc3ccc(C#N)c(F)n3)n2)cc1` [Example 148, N-[1-(5-Cyano-6-fluoro-pyridin-2-ylmethyl)-1H-pyrazol-3-yl]-2-(4-isopropyl-phenyl)-acetamide] was tested. Which IC50 did it give?
**A.** 7.6 nM
